# Measurements from patent publication US7598293B2, “Compounds and their use in medicine, process for their preparation and pharmaceutical compositions containing them” (Dr. Reddy's Laboratories, Inc., priority 2001, dated 2009).
# Assays:
# C57BL/KsJ-db/db mice = experiment: Efficacy in genetic models: blood sugar and triglyceride lowering in db/db mice; assay type: in vivo, mouse; conditions: 3 mg/kg oral, results after 6 days
# Excerpt: a) Efficacy in Genetic Models Mutation in colonies of laboratory animals and different sensitivities to dietary regimens has made the development of animal models with non-insulin dependent diabetes and hyperlipidemia associated with obesity and insulin resistance possible. Genetic models such as db/db and ob/ob (Diabetes, (1982) 31(1): 1-6) mice and zucker fa/fa rats have been developed by the various laboratories for understanding the pathophysiology of disease and testing the efficacy of new antidiabetic compounds (Diabetes, (1983) 32: 830-838; Annu. Rep. Sankyo Res. Lab. (1994). 46: 1-57). The homozygous animals, C57 BL/KsJ-db/db mice developed by Jackson Laboratory, US, are obese, hyperglycemic, hyperinsulinemic and insulin resistant (J. Clin. Invest., (1990) 85: 962-967), whereas heterozygous are lean and normoglycemic. In db/db model, mouse progressively develops insulinopenia with age, a feature commonly observed in late stages of human type II diabetes when blood sugar levels are insufficiently controlled. The state of pancreas and its course vary according to the models. Since this model resembles that of type II diabetes mellitus, the compounds of the present invention will be tested for blood sugar and triglycerides lowering activities.
# Male C57BL/KsJ-db/db mice of 8 to 14 weeks age, having body weight range of 35 to 60 grams, bred at Dr. Reddy's Research Foundation (DRF) animal house, were used in the experiment. The mice are provided with standard feed (National Institute of Nutrition (NIN), Hyderabad, India) and acidified water, ad libitum. The animals having more than 350 mg/dl blood sugar will be used for testing. The number of animals in each group will be 4.
# Test compounds are suspended on 0.25% carboxymethyl cellulose and administered to test group at a dose of 0.1 mg to 30 mg/kg through oral gavage daily for 6 days. The control group receives vehicle (dose 10 ml/kg). On 6th day the blood samples will be collected one hour after administration of test compounds/vehicle for assessing the biological activity.
# The random blood sugar and triglyceride levels can be measured by collecting blood (100 μl) through orbital sinus, using heparinised capillary in tubes containing EDTA which was centrifuged to obtain plasma. The plasma glucose and triglyceride levels can be measured spectrometrically, by glucose oxidase and glycerol-3-PO4 oxidase/peroxidase enzyme (Dr. Reddy's Lab. Diagnostic Division Kits, Hyderabad, India) methods respectively.
# The blood sugar and triglycerides lowering activities of the test compound are calculated according to the formula.
# (§1) 1. Percent reduction in Blood sugar/triglycerides/total cholesterol will be calculated according to the formula:
# (§2) [formula] • OC=Zero day control group value • OT=Zero day treated group value • TC=Test day control group value • TT=Test day treated group value
# [1] = test system: cholesterol fed Syrian Hamsters; experiment: Body weight reducing effect in cholesterol fed hamsters; assay type: in vivo, hamster; conditions: 3 mg/kg oral
# Method: d) Body weight reducing effect in cholesterol fed hamsters: Male Syrian Hamsters are procured from NIN, Hyderabad, India. Animals are housed at DRF animal house under 12 hour light and dark cycle at 25±1° C. with free access to food and water. Animals are maintained with 1% cholesterol containing standard laboratory chow (NIN) from the day of treatment.
# The test compounds can be administered orally at 1 to 30 mg/kg/day dose for 15 days. Control group animals are treated with vehicle (Mill Q water, dose 10 ml/kg/day). Body weights are measured on every 3rd day.
# as §1, §2
# Swiss albino mice = experiment: Plasma triglyceride and total cholesterol lowering activity in Swiss albino mice; assay type: in vivo, mouse; conditions: results after 6 days
# Method: c) Plasma triglyceride and total cholesterol lowering activity in Swiss albino mice Male Swiss albino mice (SAM) were obtained from NIN and housed in DRF animal house. All these animals are maintained under 12 hour light and dark cycle at 25±1° C. Animals are given standard laboratory chow (NIN, Hyderabad, India) and water, ad libitum. SAM of 20-25 g body weight range and Guinea pigs of 500-700 g body weight range are used (Oliver, P., Plancke, M. O., Marzin, D., Clavey, V., Sauzieres, J and Fruchart, J. C. Effects of fenofibrate, gemfibrozil and nicotinic acid on plasma lipoprotein levels in normal and hyperlipidemic mice. Atherosclerosis. 1988. 70: 107-114).
# The test compounds can be administered orally to Swiss albino mice at 0.3 to 30 mg/kg/day dose for 6 days. Control mice are treated with vehicle (0.25% Carboxymethylcellulose; dose 10 ml/kg). The test compounds are administered orally to Guinea pigs at 0.3 to 30 mg/kg/day dose for 6 days. Control animals are treated with vehicle (0.25% Carboxymethylcellulose; dose 5 ml/kg). The blood samples can bc collected in fed state 1 hour after drug administration on 0 and 6 day of treatment. The blood can be collected from the retro-orbital sinus through heparinised capillary in EDTA containing tubes. After centrifugation, plasma sample was separated for triglyceride (Wieland, O. Methods of Enzymatic analysis. Bergermeyer, H. O., Ed., 1963. 211-214; Trinder, P. Ann. Clin. Biochem. 1969. 6: 24-27). Measurement of plasma triglyceride is done using commercial kits (Dr. Reddy's Diagnostic Division, Hyderabad, India).
# as §1, §2
compound,measurement,setting,value
"CCOC(Cc1ccc(NC(=O)OCCCc2ccc(OS(C)(=O)=O)cc2)cc1)C(=O)O (centres unmarked) [Example 16, 2-Ethoxy-3-[4-{3-(4-methanesulfonyloxyphenyl)propyloxycarbonylamino}phenyl]propionic acid]",Reduction in Blood Glucose Level (%),C57BL/KsJ-db/db mice,15%
same,Triglyceride Lowering (%),C57BL/KsJ-db/db mice,39%
same,Reduction in Body weight (%),[1],19%
same,Reduction in Total Cholesterol (%),[1],63%
same,Reduction in Triglyceride (%),[1],77%
CCOC(Cc1ccc(NCCCc2ccc(N(C(=O)OC(C)(C)C)S(C)(=O)=O)cc2)cc1)C(=O)O (centres unmarked) [Example 30],Triglyceride Lowering (%),Swiss albino mice; 3 mg/kg oral,41%
2-Ethoxy-3-[4-(4-methanesulfonyloxybenzylamino)phenyl]propionic acid arginine salt [Example 38],Triglyceride Lowering (%),Swiss albino mice; 1 mg/kg oral,41%
"CCOC(Cc1ccc(NCCCc2ccc(OS(=O)(=O)c3ccc(C)cc3)cc2)cc1)C(=O)O (centres unmarked) [Example 19, 2-ethoxy-3-[4-{3-(4-(toluene-4-sulfonyloxy)phenyl)propylamino}phenyl]propionate]",Triglyceride Lowering (%),Swiss albino mice; 1 mg/kg oral,39%
